What all share (format): cell-based
The subject of assay [1] is SKBR3. The assay is described as follows: In-vitro cytotoxicity test of compounds ([…]-GLO), SKBR3. Particulars: Homo sapiens, SK-BR-3; SKBR3, 72 hours. On the procedure:
(§1) Killing of human tumor cell lines was evaluated in vitro using the protocol recommended in the […]-GLO® kit (Promega, Madison, Wis.). Briefly, 3×10^3 cells in […] RPMI+10% FBS were added to the inner wells of white-walled 96-well plates (Corning® Costar®, Fisher Scientific, Waltham, Mass.). The following cell lines were tested: A549, HCT116 and SKBR3. The test compounds were diluted to a 5Ax stock (125 μM) in RPMI+10% FBS. Treatments were then serially diluted 1:10 in RPMI+10% FBS. […] of this series was added to the cells in triplicate, resulting in a 9-point dose curve of test compound ranging from […] at the highest concentration to 2.5×10^−7 mM at the lowest. DMSO (vehicle) and media-only controls also were included. Plates were incubated at 37° C., 5% CO2 for 72 hours. At the end of the incubation period, […] of the Substrate Solution (Promega, Madison Wis.) was added to each well. Luminescence was measured using an EnVision Multilabel plate reader (Perkin Elmer, Waltham, Mass.). Data were analyzed and graphed using GraphPad Prism software (GraphPad Software, Inc., La Jolla, Calif.).

Assay [2] concerns A549. The assay is described as follows: In-vitro cytotoxicity test of compounds ([…]-GLO), A549. Particulars: Homo sapiens; A549, 72 hours. On the procedure: as §1
Assay [3] has as its system HCT116. The assay is described as follows: In-vitro cytotoxicity test of compounds ([…]-GLO), HCT116. Particulars: Homo sapiens, HCT-116; HCT116, 72 hours. On the procedure:
as §1

The structures appear in SMILES notation.

What is called IC50 is the midpoint of a concentration-inhibition curve. In the case of `CC[C@@]1(O)C(=O)OCc2c1cc1n(c2=O)Cc2c-1nc1cc(F)c(N)c3c1c2CCC3` [Compound 1, (S)-4-amino-9-ethyl-5-fluoro-9-hydroxy-1,2,3,9,12,15-hexahydro-10H,13H-benzo[de]pyrano[3′,4′:6,7]indolizino[1,2-b]quinoline-10,13-dione], the IC50 is 0.0958 nM in assay [1], 0.248 nM in assay [2] and 0.164 nM in assay [3].

For the compound `CC[C@@]1(O)C(=O)OCc2c1cc1n(c2=O)Cc2c-1nc1cc(F)c(C)c3c1c2[C@@H](N)CC3` [Exatecan], the IC50 in assay [1] amounted to 0.181 nM; in assay [2] it was 2.45 nM; in assay [3] it was 0.996 nM.

Values taken from US20230111996A1, “COMPOUNDS AND CONJUGATES THEREOF” (priority 2020, published 2023).
